94 compounds from PubChem BioAssay AID1963597 (National Center for Advancing Translational Sciences (NCATS), 2024) can be followed below.

Non-standard residues stand in square brackets, D forms with d. Residues, ends and D or L forms follow the SMILES beside them. *: point of attachment. Sta = CC(C)C[C@H](N)[C@@H](O)CC(=O)O; Isovaleryl = CC(C)CC(=O)*

The test system of this data set is human liver microsomes, metabolic stability half-life. Description: NCATS Human Liver Microsomal (HLM) Stability Profiling. The settings on record: higher = more stable; screened at 1 µM (by protocol). Put shortly: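 Substrate depletion (in vitro t1/2): 1 µM compound with 0.5 mg/mL microsomes and NADPH regenerating system, phosphate buffer pH 7.4, 37 °C. Sampled at 0, 5, 10, 15, 30, 60 min into cold acetonitrile with albendazole internal standard for MS quantification.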
Background: Microsomes from liver hold many membrane-bound enzymes, among them those of drug oxidation.

Take `CC(=O)c1ccc(C(=O)N(Cc2cccnc2)c2nc3c(C)c(C)ccc3s2)cc1`: the half-life (as a rule, how long it takes for the measured level to halve) worked out at 6.25 min. Take `O=C(C=Cc1cccc(S(=O)(=O)Nc2ccccc2)c1)NO`: the half-life was > 120 min. `Cc1ccccc1-n1c(SCc2ccc(Cl)cc2)nc2[nH]ncc2c1=O` returned a half-life of 53.2 min. In turn, `COc1ccc(Sc2ccc(NC(=O)c3ccccc3Cl)cc2C#N)cc1` displayed a half-life of 31.4 min. Take `C=CC(=O)Nc1cccc(CN2C(=O)N(c3c(Cl)c(OC)cc(OC)c3Cl)Cc3cnc(NCCCCN(CC)CC)nc32)c1`: the half-life worked out at 43 min. `CCCCC(=O)OCC(=O)[C@H]1[C@H](C)C[C@H]2[C@@H]3C[C@H](F)C4=CC(=O)C=C[C@]4(C)[C@@]3(F)[C@@H](O)C[C@@]21C` showed a half-life of 5.18 min. `CC(=O)N1CCCc2cc(S(=O)(=O)Nc3ccc(OC(F)(F)F)cc3)ccc21` gave a half-life of 20.9 min. Regarding `COc1ccc(OC)c([C@H](O)[C@H](C)N)c1`, the half-life was > 120 min. For the compound `CC(C(=O)O)c1ccc2c(c1)[nH]c1ccc(Cl)cc12` (centres undefined), the half-life was > 120 min.

For `CCCC(C)(COC(N)=O)COC(=O)NC(C)C` (centres undefined), the half-life was > 120 min. Take `CC(C)(C)Sc1c(CC(C)(C)C(=O)O)n(Cc2ccc(Cl)cc2)c2ccc(OCc3ccc4ccccc4n3)cc12`: the half-life stood at 34 min.

As to `CCCOc1cc(N)ccc1C(=O)OCCN(CC)CC`, the half-life turned out to be 70.3 min. For the compound `CCCCCn1cc(C(=O)Oc2cccc3cccnc23)c2ccccc21`, the half-life turned out to be 4.97 min. Turning to `CCOc1ccc(NC(=O)CC(C)O)cc1` (centres undefined), the half-life is > 120 min.

`Cc1ccc(Nc2nc(C)c(NC(=O)c3ccc(C)cc3)c(Nc3ccc(C)cc3)n2)cc1` gave a half-life of 20.5 min. Consider `CC(C(=O)O)C1C=CC(C(=O)c2ccccc2)S1` (centres undefined), for which the half-life is > 120 min. On to `CCc1ccc(NC(=O)N2CCN(c3nnc(C)c4c(C)n(-c5ccc(Cl)cc5)nc34)CC2)cc1`, for which the half-life is 25.5 min. Regarding `Fc1ccc(CN2CCC(Nc3ccc(C(F)(F)F)nn3)CC2)cc1F`, the half-life is 42.3 min. In the case of `Cn1cnc2c1c(=O)[nH]c(=O)n2C` it was 60.4 min; in that of `COc1cc(-c2nn(C3CCC(N4CCN(C(C)=O)CC4)CC3)c3ncnc(N)c23)ccc1NC(=O)c1cc2ccccc2n1C` (centres undefined), > 120 min. `CCOc1ccc(Nc2nc(C)c(NC(=O)c3ccc(C)cc3)c(Nc3ccc(OCC)cc3)n2)cc1` had a half-life of 12.2 min.

In turn, `CN(C(=O)CN(CCO)CC(=O)N(C)C(C)(C)Cc1ccccc1)C(C)(C)Cc1ccccc1` gave a half-life of 0.58 min. For the compound `Cc1nc(NC(=O)N2CCCC2C(N)=O)sc1-c1ccnc(C(C)(C)C(F)(F)F)c1` (centres undefined), the half-life is > 120 min. For the compound `CCN(CC)C(=O)C1CN2CCc3cc(OC)c(OC)cc3C2CC1OC(C)=O` (centres undefined), the half-life is > 120 min. `COc1cccc2c1C(=O)c1c(O)c3c(c(O)c1C2=O)C[C@@](O)(C(=O)CO)C[C@@H]3O[C@H]1C[C@H](N)[C@H](O[C@@H]2CCCCO2)[C@H](C)O1`: the half-life was > 120 min. The compound `CCCCNC(=O)NS(=O)(=O)c1ccc(C)cc1` came in with a half-life of 115 min. In the case of `CNCCCC12CCC(c3ccccc31)c1ccccc12` it was > 120 min. In the case of `O=c1[nH]c(=O)n([C@H]2C[C@H](O)[C@@H](CO)O2)cc1C(F)(F)F` it was > 120 min; in that of `COP(=S)(OC)SCn1nnc2ccccc2c1=O`, 8.16 min. The result for `O=C(Cc1ccc(-c2ccccc2)cc1)NC1CCC1` reads 1.5 min; that for `Cc1ccc(S(=O)(=O)Nc2ccccc2N2CCCCC2)cc1`, 3.04 min; that for `O=S(=O)(O)c1cc(I)c(O)c2ncccc12`, > 120 min. As to `CCN(CC)C(=O)/C(Cl)=C(\C)OP(=O)(OC)OC`, the half-life was > 120 min. Take `CCN(CC)CCCN(c1ccccc1)C1Cc2ccccc2C1`: the half-life amounted to 11.5 min. The compound `C#C[C@]1(O)CC[C@H]2[C@@H]3CCC4=CC(=O)CCC4=C3C=C[C@@]21CC` came in with a half-life of 38.2 min. Take `CN(C)CCC[C@@]1(c2ccc(F)cc2)OCc2cc(C#N)ccc21`: the half-life is > 120 min.

Consider `CN1CC(=O)N/C1=N/C(=O)Nc1cccc(Cl)c1`, for which the half-life was determined as 24.1 min. In the case of `COc1ccc2c3c1O[C@H]1[C@@H](O)C=C[C@H]4[C@@H](C2)N(C)CC[C@@]341` it was 112 min; in that of `CCOc1ccc(S(=O)(=O)NCCc2sc(-c3ccc(C)cc3)nc2C)cc1`, 4.09 min; in that of `N#CC1C(=O)Nc2scc(-c3ccc(-c4ccccc4O)cc3)c2C1=O` (centres undefined), > 120 min. On to `CCCCNc1ncc(C(=O)NCc2ccc(-n3ccnc3)cc2)c(NC2CCC(O)CC2)n1` (centres undefined), for which the half-life turned out to be 33 min. `Cc1cc2c(cc1S(N)(=O)=O)S(=O)(=O)CCC2`: the half-life was > 120 min.

With `CC(C)c1c(NC(=O)Nc2ccc(Cl)cc2)c(=O)n(-c2ccccc2)n1C`, the half-life was > 120 min.

In the case of `CC(CCc1ccc(O)cc1)NCC(O)c1ccc(O)cc1` (centres undefined), the half-life was > 120 min. In the case of `Cc1ccc(NC(=O)Nc2cccs2)c(C)c1` it was 23.8 min. In turn, `CC(=O)c1ccc(N2CCN(c3ncnc4c3cnn4C)CC2)cc1` gave a half-life of 109 min.

Turning to `CC(C)(N)Cc1ccccc1Cl`, the half-life is > 120 min. The result for `CCOC(=O)c1cc(=O)c2c(OCC(COc3cccc4oc(C(=O)OCC)cc(=O)c34)OC(=O)[C@@H](N)CCCCN)cccc2o1` reads 4.47 min; that for `CCOc1cccc(NC(=O)c2ccc(N3CCCC3)c(C(F)(F)F)c2)c1`, 23 min. On to `COc1ccc(CCO[C@@H]2CCCC[C@H]2N2CC[C@@H](O)C2)cc1OC`, for which the half-life was > 120 min. The result for `NC(N)=NS(=O)(=O)c1ccc(N)cc1` reads 78.3 min; that for `COc1cc(OC)cc(OC)c1`, 18.1 min.

On to `COc1cc(C(=S)N2CCOCC2)cc(OC)c1OC`, for which the half-life is > 120 min.

Regarding `O=[N+]([O-])c1cn2c(n1)OC[C@@H](OCc1ccc(OC(F)(F)F)cc1)C2`, the half-life was > 120 min. `[O-][n+]1cccc(CO)c1`: the half-life was > 120 min. Consider `CCCc1nn(C)c2c(=O)[nH]c(-c3cc(S(=O)(=O)N4CCN(C)CC4)ccc3OCC)nc12`, for which the half-life worked out at 18.7 min.

`CCc1cc(Cl)c(OC)c(C(=O)NC[C@@H]2CCCN2CC)c1O` had a half-life of 13.6 min. `Cc1csc(NC(=O)c2ccc(COc3cccc(Cl)c3)o2)n1` had a half-life of 14.9 min. Compound `Cn1nnc2c(C(N)=O)ncn2c1=O` displayed a half-life of 21.1 min. In turn, `COc1cc(Nc2nc3c(s2)CCCC3c2ccccc2)ccc1-n1cnc(C)c1` (centres undefined) registered a half-life of 31 min. The result for `CCOC(=O)c1cc(C#N)c(N2CCC(C(=O)NS(=O)(=O)Cc3ccccc3)CC2)nc1C` reads 43.7 min. In the case of `Cc1cc(Nc2nc(N[C@@H](C)c3ccc(F)cc3)c(C#N)cc2F)n[nH]1`, the half-life is > 120 min. In the case of `CN1CCC(=C2c3ccccc3CCc3cccnc32)CC1`, the half-life was > 120 min.

For `Clc1ccc(C2(c3ccc(-c4cn[nH]c4)cc3)CCNCC2)cc1`, the half-life is > 120 min. With `CCCCOCCOC(=O)c1cccnc1`, the half-life amounted to 0.66 min. On to `Cn1cc(-c2ccc3nnc(Sc4ccc5nn(C)cc5c4)n3n2)cn1`, for which the half-life was > 120 min. Turning to `CC(C)NC[C@H](O)c1ccc2ccccc2c1`, the half-life turned out to be 18.8 min. The result for `CC(Cc1ccc2c(c1)OCO2)NCC(O)c1ccc(O)c(O)c1` (centres undefined) reads 18.6 min. As to `O=C(O)c1ccc(OCCN2CCCCC2)cc1`, the half-life was > 120 min. `O=C(Nc1cccc(-c2nc3cc(Cl)ccc3o2)c1)c1ccccc1` yielded a half-life of 5.41 min.

Turning to `CN1[C@@H]2CC[C@H]1CC(OC(=O)c1c[nH]c3ccccc13)C2` (some centres undefined), the half-life is > 120 min.

Compound `CCN1CCc2nc(N)oc2CC1` showed a half-life of 112 min. `Cc1ccc(-c2noc([C@@H]3Cc4nc[nH]c4CN3Cc3cccc(C#N)c3)n2)cc1` came in with a half-life of 11.4 min. The result for `CCOP(=S)(OCC)Oc1ccc2c(C)c(Cl)c(=O)oc2c1` reads 5.07 min. `Cc1coc2c1C(=O)C(=O)c1c-2ccc2c1CCCC2(C)C` had a half-life of 5.39 min.

Consider `COc1ccc(CC(=O)NCC(c2cccs2)S(=O)(=O)c2ccc(Cl)cc2)cc1` (centres undefined), for which the half-life came out at 4.19 min. Compound `Cc1ccc(S(=O)(=O)NC2CCC(C(C)(C)C)CC2)cc1` (centres undefined) returned a half-life of 3.92 min.

Consider `Cc1onc(-c2ccccc2)c1-c1ccc(S(N)(=O)=O)cc1`, for which the half-life was > 120 min. In the case of `CC(CC1c2ccccc2CCc2ccccc21)CN(C)C` (centres undefined) it was 87.7 min; in that of `COCCn1c(SCC(=O)Nc2ccc(F)c(Cl)c2)nc2c(oc3ccccc32)c1=O`, 7.26 min. Compound `CCN1CCN(C(=O)c2ccc3c(c2)N(Cc2cc(C)ccc2C)C(=O)c2ccccc2S3(=O)=O)CC1` came in with a half-life of 1.24 min. The result for `CCOC(=O)C(c1c(O)c2ccccc2oc1=O)c1c(O)c2ccccc2oc1=O` reads 10.3 min; that for `Fc1ccc(-c2nc(C3CCNCC3)sc2-c2ccnc(NC3CC3)n2)cc1`, > 120 min; that for `CC(C)CC(=O)N[C@H](C(=O)N[C@H](C(=O)N[C@@H](CC(C)C)[C@@H](O)CC(=O)N[C@@H](C)C(=O)N[C@@H](CC(C)C)[C@@H](O)CC(=O)O)C(C)C)C(C)C` (Isovaleryl-VV[Sta]A[Sta]-OH), > 120 min. As to `N#Cc1ccnc(Nc2cc(C3CCN(C4COC4)CC3)cc(N3CCC(F)(F)C3)n2)c1`, the half-life was 29.3 min. For the compound `CNC(=O)O[C@H]1COc2ccc(N3CCN(C4COC4)CC3)cc2[C@@H]1NC(=O)c1ccc(F)cc1`, the half-life was > 120 min. Take `CN1CCN(C(=O)c2cc(-c3cccnc3)nc3c2cnn3C)CC1`: the half-life was > 120 min.

Take `CCCn1ncc(CN2CCCC(C(=O)c3cccc(OC(C)C)c3)C2)c1C` (centres undefined): the half-life amounted to 8.9 min. As to `C[C@@H](N)[C@@H](O)c1ccccc1`, the half-life was determined as 92.4 min. In the case of `COc1ccc(C(=O)N2CCCC2=O)cc1`, the half-life was > 120 min. The result for `CC(=O)OCC(CCn1cnc2cnc(N)nc21)COC(C)=O` reads 2.34 min; that for `Cn1ncc(Cl)c1-c1cc(C(=O)NC(CN)Cc2ccc(F)c(F)c2)oc1Cl` (centres undefined), > 120 min. The compound `Cc1ccc2c(n1)Oc1ccc(C(C)C(=O)OCC(=O)N(C)C)cc1C2` (centres undefined) came in with a half-life of 11.1 min. For `Clc1ccc2c(c1)Nc1ccccc1S2`, the half-life amounted to 6.28 min.
